Data from US20140088187A1, “ANDROGEN RECEPTOR INHIBITORS AND METHODS OF USE THEREOF” (BETH ISRAEL DEACONESS MEDICAL CENTER, priority 2010, published 2014).
“Also recorded” adds a separate entry of the source.

How the values were obtained:
[1] = biological target: T1, wildtype AR (Homo sapiens, UniProt P10275); assay: AR-responsive firefly luciferase reporter assay in COS7 cells transfected with AR (DHT-stimulated AR activity); type: cell-based; details: relative to initial chemotype A compounds; data not shown
T1 construct: The AR WT construct expresses full-length human AR under cmv promoter control; expressed in transfected cells; host or cells: COS7
T1 sequence (P10275 1-920): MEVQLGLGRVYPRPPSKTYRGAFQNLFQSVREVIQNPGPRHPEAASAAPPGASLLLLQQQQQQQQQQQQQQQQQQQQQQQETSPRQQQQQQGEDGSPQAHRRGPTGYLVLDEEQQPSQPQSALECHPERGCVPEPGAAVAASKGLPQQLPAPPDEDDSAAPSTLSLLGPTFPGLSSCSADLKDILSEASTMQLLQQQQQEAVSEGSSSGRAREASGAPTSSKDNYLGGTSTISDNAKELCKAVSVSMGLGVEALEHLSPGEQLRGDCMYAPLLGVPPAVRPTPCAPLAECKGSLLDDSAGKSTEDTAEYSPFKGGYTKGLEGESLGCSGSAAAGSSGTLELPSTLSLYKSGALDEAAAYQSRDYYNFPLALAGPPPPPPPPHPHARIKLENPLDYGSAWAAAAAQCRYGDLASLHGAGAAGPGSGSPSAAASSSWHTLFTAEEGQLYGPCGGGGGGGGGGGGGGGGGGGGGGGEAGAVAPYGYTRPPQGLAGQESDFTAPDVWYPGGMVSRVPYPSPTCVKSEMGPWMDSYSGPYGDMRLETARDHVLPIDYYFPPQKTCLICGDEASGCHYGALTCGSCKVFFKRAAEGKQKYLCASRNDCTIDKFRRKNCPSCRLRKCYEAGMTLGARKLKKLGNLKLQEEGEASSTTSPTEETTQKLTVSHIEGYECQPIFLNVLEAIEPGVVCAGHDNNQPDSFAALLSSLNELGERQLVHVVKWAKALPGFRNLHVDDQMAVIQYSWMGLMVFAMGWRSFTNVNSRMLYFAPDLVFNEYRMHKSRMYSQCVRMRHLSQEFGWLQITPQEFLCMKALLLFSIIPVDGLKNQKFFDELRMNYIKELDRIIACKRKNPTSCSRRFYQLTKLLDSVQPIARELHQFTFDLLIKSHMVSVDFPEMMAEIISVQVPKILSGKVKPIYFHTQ
Description: FIG. 13. Antagonist activity of generation 4 compounds at 25 micromolar. […] Reporter firefly luciferase is corrected for control Renilla activity.
FIG. 14. Antagonist activity of generation 4 compounds at 1-10 micromolar. […] Reporter firefly luciferase is corrected for control Renilla activity. […]
The AR-responsive firefly luciferase reporter consists of 4 tandem repeats of the consensus steroid response element cloned upstream of the pGL3-Basic Luciferase vector (Promega). The AR WT construct expresses full-length human AR under cmv promoter control.
Luciferase activity was determined using the Dual-Luciferase Reporter Assay System (Promega E1910).

[2] = biological target: T2, AR WT (Homo sapiens, UniProt P10275); assay: Mifepristone-stimulated VP16-NCoRc recruitment reporter assay in COS7 cells, AR WT; type: cell-based
T2 construct: The AR WT construct expresses full-length human AR under cmv promoter control; expressed in transfected cells; host or cells: COS7
T2 sequence (P10275 1-920): T1 sequence (P10275 1-920)
Description: The ERα antagonist fulvestrant (Faslodex) represents a novel class of estrogen receptor downregulators that appear to mediate ERα degradation by specifically repositioning helix 12. To assess the role of helix 12 in chemotype A-mediated AR degradation, we first determined if helix 12 is required for A89 binding. As this helix is required for AR agonist activity, we could not directly measure competitive antagonist activity on a truncated AR lacking helix 12.

[3] = biological target: T3, wild-type AR in PC3-AR cells (Homo sapiens, UniProt P10275); assay: AR protein levels and degradation (cycloheximide) in PC3-AR cells; type: cell-based
T3 construct: expressed in transfected cells
T3 sequence (P10275 1-920): T1 sequence (P10275 1-920)
Procedure: As LNCaP and C4-2 cells express the T877A mutant AR, we next examined PC3-AR cells expressing wildtype AR. As observed in C4-2 cells, A89 caused a decrease in AR protein levels (FIG. 10d). To further validate that this was due to increased AR protein degradation, we pretreated these cells with A89 for 2 hours and then blocked new protein synthesis with cycloheximide (CHX). […] We finally examined VCaP cells.

[4] = system: VCaP xenograft tumors; assay: Post-castration relapsed VCaP xenograft tumors (model of CRPC); type: in vivo
Procedure: FIG. 17. Compound A89 maintains activity in vivo and is efficacious in a CRPC xenograft model. (a) Morphological changes in seminal vesicles of intact adult male mice following treatment with DMSO vehicle, Bic (0.5 mg/day) or A89 (mg/day as indicated) for 7 days. (b) H&E stained cross-sections of prostate ductal epithelium from above mice treated with DMSO, Bic, or A89 (10 mg/day). (c) AR and Ki-67 staining in pre- and post-castration relapsed VCaP xenograft tumor sections following treatment with A89 (5 mg/day) or Bic (0.5 mg/day) for 7 days. (d) mRNA levels of AR and AR-target genes in post-castration relapsed VCaP xenograft tumors following treatment with A89 (5 mg/day) for 7 days. Error bars represent S.E.M.
To evaluate the activity of the chemotype A compounds in vivo we first treated adult male mice with compound A89 in a dose ranging experiment from 0.5 mg/day to 10 mg/day via intraperitoneal injection for 7 days. […] We next evaluated A89 in VCaP xenograft tumors that had relapsed following an initial response to castration, which is a model of CRPC.

CCOc1cc(F)c(S(=O)(=O)NCc2ccc3c(c2)OCO3)cc1F [Compound A89, N-(1,3-benzodioxol-5-ylmethyl)-4-ethoxy-2,5-difluorobenzenesulfonamide]
potency in antagonizing AR activity in luciferase reporter assays [1]: increased potency; also recorded: relatively higher potency
mifepristone-mediated VP16-NCoRc recruitment ([2]; A89 50 μM with Mif 100 nM): suppressed
VP16-NCoRc recruitment (interaction with AR) ([2]; Mif 100 nM, A89 50 μM, 24 hours): did not stimulate
time within which AR protein decreased ([3]; A89 10 μM, PC3-AR cells): ≤ 4 h
time within which total AR protein dramatically decreased after cycloheximide (CHX) ([3]; A89 treated PC3-AR cells plus CHX): ≤ 1 h
AR protein levels ([3]; PC3-AR cells expressing wildtype AR): decrease
AR protein levels after cycloheximide ([3]; PC3-AR cells pretreated with A89 for 2 hours, then 1 hour CHX, versus CHX alone): declined markedly
tumor cell proliferation (Ki-67 staining) ([4]; A89 5 mg/day for 7 days): decreased tumor cell proliferation
nuclear AR expression / staining in tumor ([4]; A89 5 mg/day or Bic 0.5 mg/day for 7 days): substantially decreased
expression of androgen regulated genes (TMPRSS2, ERG, PSA mRNA) ([4]; biopsies pre- and post treatment, A89 5 mg/day for 7 days): significant decrease
